Experimental findings from patent US20240197871A1, “COMBINATION OF A CAR T CELL THERAPY AND AN IMMUNOMODULATORY COMPOUND FOR TREATMENT OF LYMPHOMA” (Juno Therapeutics, Inc., priority 2021, published 2024) are described below.

One experiment concerns the target T1, Aiolos (Homo sapiens, UniProt Q96SW2+Q9UKT9).
T1 construct: analyzed by flow cytometry to assess intracellular levels of Ikaros and Aiolos in CAR+ T cells; endogenous in cells; host or cells: primary human CD4+ and CD8+ T cells from healthy donors, lentivirally transduced with an anti-CD19 CAR
Briefly: Aiolos degradation in stimulated anti-CD19 CAR T cells (flow cytometry MFI). It counts as cell-based. The text has this: (§1) T cell compositions containing anti-CD19 CAR-expressing T cells were generated from leukapheresis samples from five healthy human adult donors by a process that included immunoaffinity-based selection of T cells by separately selecting CD4+ and CD8+ cells from the samples, resulting in two compositions enriched for CD4+ and CD8+ cells, respectively, per donor. Cells of the enriched CD4+ and CD8+ compositions were separately activated with anti-CD3/anti-CD28 beads and subjected to lentiviral transduction with a vector encoding an anti-CD19 CAR. The anti-CD19 CAR contained an anti-CD19 single-chain variable fragment (scFv) derived from a murine antibody (variable region derived from FMC63), an immunoglobulin-derived spacer, a transmembrane domain derived from CD28, a costimulatory region derived from 4-1BB, and a CD3-zeta intracellular signaling domain. The expression construct in the viral vector further contained sequences encoding a surrogate surface marker for CAR expression, which was separated from the CAR-encoding sequence by a T2A ribosome skip sequence. Transduced populations then were separately incubated in the presence of stimulating reagents for cell expansion. Expanded CD4+ and CD8+ cells were formulated and cryopreserved separately and stored.
(§2) Prior to use, the cryopreserved CD4+ and CD8+ engineered cell compositions were thawed and combined at approximately a 1:1 CD4:CD8 ratio for each donor. Cells of the combined composition were then stimulated at 37° C. with 5% CO2 for 24 hours with 30 µg/mL of a CAR-specific anti-idiotypic antibody (see, e.g., WO2018/023100).
(§3) Following incubation, the stimulated cells were stained with antibodies and analyzed by flow cytometry to assess intracellular levels of Ikaros and Aiolos in CAR+ T cells, as measured by median fluorescence intensity (MFI). MFI values for Ikaros and Aiolos were normalized and calculated as a percentage relative to vehicle control.
(In general: A flow cytometer gives signals particle by particle.)

In experiment [1] the target is T2, Ikaros (Homo sapiens, UniProt Q13422+Q96SW2).
T2 construct: analyzed by flow cytometry to assess intracellular levels of Ikaros and Aiolos in CAR+ T cells; endogenous in cells; host or cells: primary human CD4+ and CD8+ T cells from healthy donors, lentivirally transduced with an anti-CD19 CAR
T2 sequence (Q13422 whole entry): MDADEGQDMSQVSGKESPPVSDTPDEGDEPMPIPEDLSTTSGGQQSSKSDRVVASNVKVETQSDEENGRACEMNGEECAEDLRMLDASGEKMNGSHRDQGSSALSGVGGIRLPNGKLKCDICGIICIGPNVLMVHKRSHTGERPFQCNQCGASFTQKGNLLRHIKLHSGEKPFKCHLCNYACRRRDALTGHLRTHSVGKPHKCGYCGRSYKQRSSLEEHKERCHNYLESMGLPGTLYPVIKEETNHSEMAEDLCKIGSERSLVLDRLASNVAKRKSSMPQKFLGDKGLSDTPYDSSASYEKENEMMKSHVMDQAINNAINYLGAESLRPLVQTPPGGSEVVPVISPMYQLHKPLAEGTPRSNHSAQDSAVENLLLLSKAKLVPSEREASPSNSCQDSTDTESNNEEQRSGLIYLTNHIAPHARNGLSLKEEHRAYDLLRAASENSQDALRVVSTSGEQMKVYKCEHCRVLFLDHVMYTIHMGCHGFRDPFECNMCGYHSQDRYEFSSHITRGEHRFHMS
T2 sequence (Q96SW2 whole entry): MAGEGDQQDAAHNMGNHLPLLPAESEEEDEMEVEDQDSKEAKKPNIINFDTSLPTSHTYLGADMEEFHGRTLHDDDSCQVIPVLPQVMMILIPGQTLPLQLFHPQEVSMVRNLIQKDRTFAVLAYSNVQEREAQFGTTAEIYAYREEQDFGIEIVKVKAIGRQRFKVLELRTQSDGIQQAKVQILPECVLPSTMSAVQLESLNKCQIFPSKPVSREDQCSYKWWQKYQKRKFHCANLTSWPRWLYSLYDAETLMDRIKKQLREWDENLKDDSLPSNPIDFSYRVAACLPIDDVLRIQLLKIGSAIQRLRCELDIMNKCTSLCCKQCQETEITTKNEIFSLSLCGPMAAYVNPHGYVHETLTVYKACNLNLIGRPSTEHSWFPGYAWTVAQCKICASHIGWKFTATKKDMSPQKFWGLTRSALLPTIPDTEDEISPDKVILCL
T2 sequence (Q16531 whole entry partner): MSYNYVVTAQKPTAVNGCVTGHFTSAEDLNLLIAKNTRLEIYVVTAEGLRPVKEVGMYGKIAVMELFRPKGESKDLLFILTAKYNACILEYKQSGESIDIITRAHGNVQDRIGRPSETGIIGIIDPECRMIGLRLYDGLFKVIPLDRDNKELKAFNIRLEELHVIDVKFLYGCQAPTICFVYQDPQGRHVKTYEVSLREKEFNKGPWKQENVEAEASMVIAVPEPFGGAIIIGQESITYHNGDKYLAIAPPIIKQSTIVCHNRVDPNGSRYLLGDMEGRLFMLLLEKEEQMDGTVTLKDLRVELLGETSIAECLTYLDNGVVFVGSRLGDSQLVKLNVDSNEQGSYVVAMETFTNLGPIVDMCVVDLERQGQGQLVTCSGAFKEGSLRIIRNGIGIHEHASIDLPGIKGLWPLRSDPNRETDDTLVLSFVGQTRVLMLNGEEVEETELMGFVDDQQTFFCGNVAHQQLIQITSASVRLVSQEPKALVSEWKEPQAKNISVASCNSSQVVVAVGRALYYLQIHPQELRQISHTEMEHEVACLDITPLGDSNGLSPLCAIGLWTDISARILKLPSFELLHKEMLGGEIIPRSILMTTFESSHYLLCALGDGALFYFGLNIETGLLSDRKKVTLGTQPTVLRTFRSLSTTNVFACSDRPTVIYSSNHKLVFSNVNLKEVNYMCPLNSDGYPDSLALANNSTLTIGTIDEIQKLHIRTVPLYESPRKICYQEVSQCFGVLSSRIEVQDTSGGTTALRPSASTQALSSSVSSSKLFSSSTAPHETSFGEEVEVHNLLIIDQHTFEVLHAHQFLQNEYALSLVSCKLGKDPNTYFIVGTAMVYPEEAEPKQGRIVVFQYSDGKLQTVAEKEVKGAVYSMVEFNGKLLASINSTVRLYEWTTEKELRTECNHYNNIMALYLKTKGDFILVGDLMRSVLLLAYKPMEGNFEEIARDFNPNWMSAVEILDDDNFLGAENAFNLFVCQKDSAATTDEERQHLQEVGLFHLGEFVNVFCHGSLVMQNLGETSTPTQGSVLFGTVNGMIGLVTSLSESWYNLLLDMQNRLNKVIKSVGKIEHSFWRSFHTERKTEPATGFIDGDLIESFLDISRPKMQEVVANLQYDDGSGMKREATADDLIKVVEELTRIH
Briefly: Ikaros degradation in stimulated anti-CD19 CAR T cells (flow cytometry MFI). It counts as cell-based.
Description: as §1, §2, §3

Experiment [2] has as its target T2, Ikaros. The experiment is described as follows: Ikaros expression in CAR T cells after six days of chronic stimulation (MFI). It counts as cell-based. Conditions: higher concentrations (e.g., 0.01 μM and 0.1 μM); compared with Compound 2. How it is done:
To simulate conditions of chronic stimulation, anti-CD19 CAR-expressing T cells, produced as described in Example 1, were incubated with plate-bound CAR-specific anti-idiotypic antibody (see, e.g., WO2018/023100) and incubated at 37° C. for a period of six days. […] For instance, CAR T cells that were re-challenged with CD19+ tumor cells following the six-day stimulation had reduced IFNγ and IL-2 cytokine production (FIG. 3A) and reduced cytolytic function (FIG. 3B) compared to freshly thawed CAR T cells not subjected to the six-day stimulation.
The ability of Compound C to block or reduce this CAR T cell hypofunctionality following chronic stimulation was assessed. To do so, engineered CAR T cells were concurrently treated with Compound C, Compound 2, or a vehicle control during the six-day stimulation. Stimulated CAR T cells were then harvested, washed twice in media, and re-challenged with Granta-519 lymphoma tumor spheroids (that had been transduced with IncuCyte NucLight Red) in the absence of Compound C, after which cytolytic activity was assessed by loss of red fluorescence over time and averaged measurement of tumor spheroid size at various times following co-culture with CAR-T cells. Cytokine production, Ikaros expression, and gene expression of the CAR T Cells also were assessed. […]

Another experiment concerns anti-CD19 CAR T cells. Briefly: Proliferation (cell doublings) of stimulated anti-CD19 CAR T cells, IncuCyte. Type of experiment: cell-based, human. On the procedure:
Anti-CD19 CAR-expressing T cell compositions were generated from three different healthy donors as described in Example 1. Prior to use, cryopreserved CD4+ and CD8+ engineered cell compositions were thawed and combined at approximately a 1:1 CD4:CD8 ratio.
Following incubation, stimulated CAR T cells were harvested, washed twice in media, and assessed.
Proliferation of T cells during culture with the plate-bound anti-idiotypic antibody was monitored for seven days using an IncuCyte® Live Cell Analysis System (Essen BioScience Inc.), and the number of cell doublings of cells stimulated with 30 μg/mL of anti-idiotypic antibody is shown in FIG. 2B and FIG. 2C for the three donors (mean±SEM).

The subject of experiment [3] is CAR-expressing CD8 T cells. The experiment is described as follows: T cell memory markers CD27/CCR7 after chronic stimulation (flow cytometry). It counts as cell-based, human. How it is done: Similar results are shown in FIG. 7B for a separate experiment in which CAR T cells were chronically stimulated for 7 days in the presence or absence of Compound C. In this experiment, Compound C was present at (i) 50 nM for one day and 1 nM for the remaining six days of stimulation, (ii) 25 nM for one day and 0.5 nM for the remaining six days of stimulation, (iii) 10 nM for all seven days of stimulation, or (iv) 1 nM for all seven days of stimulation. Stimulated CAR T cells were then re-challenged with Raji lymphoma tumor spheroids in the absence of Compound C, after which cytolytic activity was assessed over a four-day period. […] The CAR T cells stimulated for seven days in the presence or absence of Compound C were also analyzed for phenotypic T cell memory markers using flow cytometry following chronic stimulation. […] CD27/CCR7 expression, which is a marker for less differentiated, naïve-like T cells, was highest in CAR-expressing CD8 T cells stimulated in the presence of Compound C at 50 nM for one day and 1 nM for the remaining six days of stimulation (* P<0.05).

Experiment [4] has as its system Granta-519 lymphoma tumor spheroids or A549 tumor spheroids. Briefly: Chronic stimulation with rescue treatment during re-challenge with tumor spheroids. It counts as cell-based. How it is done:
Anti-CD19 CAR-expressing T cells, produced as described in Example 1, were chronically stimulated as described in Example 3, but in the absence of Compound C during stimulation. Instead, chronically stimulated CAR T cells were treated with Compound C during re-challenge with Granta-519 lymphoma tumor spheroids or A549 tumor spheroids, after which cytolytic activity, cytokine production, and gene expression of the CAR T Cells was assessed.
FIGS. 4B and 4C show the volume of tumor spheroids co-cultured with anti-CD19 CAR T cells in the presence of Compound C.

Where [5] appears, read: approximately 10^-1 to 10^4 nM, 24 hours.
Where [6] appears, read: at all compound concentration levels tested.

T1 sequence (Q9UKT9 whole entry): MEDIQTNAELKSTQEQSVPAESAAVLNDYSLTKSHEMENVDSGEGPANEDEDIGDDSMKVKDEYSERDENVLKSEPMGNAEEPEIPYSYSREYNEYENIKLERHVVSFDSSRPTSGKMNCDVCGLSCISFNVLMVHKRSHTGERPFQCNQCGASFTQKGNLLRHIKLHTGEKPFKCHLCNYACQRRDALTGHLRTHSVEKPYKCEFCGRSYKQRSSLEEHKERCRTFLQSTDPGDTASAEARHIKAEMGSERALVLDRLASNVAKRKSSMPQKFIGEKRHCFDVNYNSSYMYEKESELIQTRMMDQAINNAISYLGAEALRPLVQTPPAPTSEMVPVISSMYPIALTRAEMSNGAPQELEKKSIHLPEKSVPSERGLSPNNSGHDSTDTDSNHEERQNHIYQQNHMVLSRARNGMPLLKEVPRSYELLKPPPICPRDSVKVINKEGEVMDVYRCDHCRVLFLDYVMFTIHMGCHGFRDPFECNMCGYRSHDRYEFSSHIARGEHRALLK
T1 sequence (Q96SW2 whole entry): as the sequence (Q96SW2 whole entry) above
T1 sequence (Q16531 whole entry partner): as the sequence (Q16531 whole entry partner) above

Turning to `O=C1CC[C@H](N2C(=O)c3cccc(NCc4ccc(CN5CC(N6CCOCC6)C5)cc4F)c3C2=O)C(=O)N1` [Compound C, (S)-2-(2,6-dioxopiperidin-3-yl)-4-((2-fluoro-4-((3-morpholinoazetidin-1-yl)methyl)benzyl)amino)isoindoline-1,3-dione], the DC50 on Aiolos (anti-CD19 CAR T cells, 24 hours stimulation with anti-idiotypic antibody, concentration reducing MFI to 50%, average of five donors, read-out: Average EC50 Values (95% Confidence Interval), Aiolos) was 0.25 nM; at Ikaros [1] (anti-CD19 CAR T cells, 24 hours stimulation with anti-idiotypic antibody, concentration reducing MFI to 50%, average of five donors, read-out: Average EC50 Values (95% Confidence Interval), Ikaros), 0.31 nM. In addition, at Aiolos (setting [5]), the “intracellular Aiolos expression (MFI relative to vehicle control)” value is “Concentration-dependent decreases”. Further, the “Aiolos expression compared with Compound 2 or Compound 1” value at Aiolos (setting [6]) was “lower”. Further, the “intracellular Ikaros expression (MFI relative to vehicle control)” value on Ikaros [1] (setting [5]) is listed as “Concentration-dependent decreases”. Also, the “Ikaros expression compared with Compound 2 or Compound 1” value on Ikaros [1] (setting [6]) is “lower”. The “Ikaros expression (MFI) after six days of chronic stimulation” value at Ikaros [2] is “lowest”. In addition, the “CAR T cell proliferation” value is listed as “decreased” in the experiment with anti-CD19 CAR T cells (1 nM, P<0.001) and “further decreased” with anti-CD19 CAR T cells (10 nM, P<0.0001). In the experiment on anti-CD19 CAR T cells (at all doses tested), the “decrease of cell doublings compared with the other compounds” value was “greatest decrease of doublings”. Further, in experiment [3] (50 nM for one day and 1 nM for the remaining six days of stimulation, P<0.05), the CD27/CCR7 expression result is given as “highest”. The “percentage of CD27+/CCR7+ cells vs stimulation in the absence of compound” value in experiment [3] (seven days of chronic stimulation in the presence of compound) is reported as “higher percentages of CD27+/CCR7+ cells”. For the same compound, the “tumor volume vs chronically stimulated CAR T cells alone or compound alone” value in experiment [4] (1 nM during re-challenge (rescue) with CAR T cells, P<0.0001) is “more reduced”; in experiment [4] (10 nM during re-challenge (rescue) with CAR T cells, P<0.0001) it was “more reduced”. The “IFNγ cytokine production five days after re-challenge” value in experiment [4] (1 nM during re-challenge (rescue), P<0.0001) is reported as “highest”; in experiment [4] (10 nM during re-challenge (rescue), P<0.05) it was “increased”.
